Residues, ends and D or L forms follow the SMILES beside them. *: point of attachment. Cbz = O=C(OCc1ccccc1)*; CH2F = FC*
System: B.1.617.2 Delta Variant of SARS-CoV-2
Experiment: microbe, parasite or virus in culture
Assay type: cell-based

Structure (SMILES): CC(C)C[C@H](NC(=O)OCc1ccccc1)C(=O)N[C@@H](CC(C)C)C(=O)N[C@@H](Cc1ccc(O)cc1)C(=O)CF [Calpain Inhibitor IV] (Cbz-Leu-Leu-Tyr-CH2F)
- Conc. at Max. % Inhibition: 0.45 µM
- Max. Inhibition: 105.43%
- IC50 (read-out: IC 50 against B.1.617.2 Delta Variant Infection-Induced CPE): 124 nM
